Experimental data: ChEMBL document CHEMBL5724914, “Linking interpersonal differences in gut microbiota composition and drug biotransformation activity” (2024)

Columns and labels:
[1] = (§1) The drug is tested on WLS-090 corresponding to human gut metagenome with ENA study accession number: PRJEB37062 and ENA sample accession number: ERS12561753 for biotransformation under anaerobic condition. The drug concentrations were measured over 9 timepoints collected between 0 and 24 hours of incubation by liquid-chromatography-coupled mass spectrometry (LC–MS); settings: 2 µM
[2] = human gut metagenome, 24 h, 2 µM
[3] = as §1, with “Z-019” for “WLS-090”, “rat” for “human”, “ERS12561818” for “ERS12561753”; settings: 2 µM
[4] = human gut metagenome, 24 h, 2 µM; remark: listed apart in the source
[5] = as §1, with “WLS-098” for “WLS-090”, “ERS12561754” for “ERS12561753”; settings: 2 µM
[6] = as §1, with “Z-002” for “WLS-090”, “rabbit” for “human”, “ERS12561802” for “ERS12561753”; settings: 2 µM
[7] = as §1, with “Z-027” for “WLS-090”, “to” for “to human gut”, “ERS12561826” for “ERS12561753”; settings: 2 µM
[8] = human gut metagenome, 24 h, 2 µM; remark: listed apart in the source
[9] = as §1, with “Z-021” for “WLS-090”, “to” for “to human gut”, “ERS12561820” for “ERS12561753”; settings: 2 µM
Further: call rule not given here.

Compound | Bacterial Biotransformation [1] | Bacterial Biotransformation [2] | Bacterial Biotransformation [3] | Bacterial Biotransformation [4] | Bacterial Biotransformation [5] | Bacterial Biotransformation [6] | Bacterial Biotransformation [7] | Bacterial Biotransformation [8] | Bacterial Biotransformation [9]
CC(C)NCC(O)COc1ccc(CCOCC2CC2)cc1 (stereo unspecified) [BETAXOLOL] | Compound metabolized | Compound metabolized | Compound NOT metabolized | Compound NOT metabolized | Compound metabolized | Compound metabolized | Compound NOT metabolized | Compound NOT metabolized | Compound NOT metabolized
CC(C)(Oc1ccc(CCNC(=O)c2ccc(Cl)cc2)cc1)C(=O)O [BEZAFIBRATE] | Compound metabolized | Compound metabolized | Compound NOT metabolized | Compound metabolized | Compound metabolized | Compound metabolized | Compound NOT metabolized | Compound metabolized | Compound metabolized
CC(O)(CS(=O)(=O)c1ccc(F)cc1)C(=O)Nc1ccc(C#N)c(C(F)(F)F)c1 (stereo unspecified) [BICALUTAMIDE] | Compound NOT metabolized | Compound NOT metabolized | Compound NOT metabolized | Compound NOT metabolized | Compound NOT metabolized | Compound NOT metabolized | Compound NOT metabolized | Compound NOT metabolized | Compound NOT metabolized
CCCC1O[C@@H]2C[C@H]3[C@@H]4CCC5=CC(=O)C=C[C@]5(C)[C@H]4[C@@H](O)C[C@]3(C)[C@]2(C(=O)CO)O1 (stereo partly specified) [BUDESONIDE] | Compound metabolized | Compound metabolized | Compound NOT metabolized | Compound metabolized | Compound metabolized | Compound metabolized | Compound NOT metabolized | Compound metabolized | Compound metabolized
O=C(NCc1ccccc1)OCCO [BURAMATE] | Compound NOT metabolized | Compound NOT metabolized | Compound NOT metabolized | Compound NOT metabolized | Compound NOT metabolized | Compound NOT metabolized | Compound NOT metabolized | Compound NOT metabolized | Compound NOT metabolized
CCN(CC)CCOCCOC(=O)C1(c2ccccc2)CCCC1.O=C(O)CC(O)(CC(=O)O)C(=O)O [CARBETAPENTANE CITRATE] | Compound metabolized | Compound metabolized | Compound NOT metabolized | Compound metabolized | Compound metabolized | Compound metabolized | Compound NOT metabolized | Compound metabolized | Compound metabolized
O=C(O)COCCN1CCN(C(c2ccccc2)c2ccc(Cl)cc2)CC1 (stereo unspecified) [CETIRIZINE] | Compound metabolized | Compound metabolized | Compound NOT metabolized | Compound metabolized | Compound metabolized | Compound metabolized | Compound NOT metabolized | Compound metabolized | Compound metabolized
CN/C(=N/CCSCc1nc[nH]c1C)NC#N [CIMETIDINE] | Compound metabolized | Compound NOT metabolized | Compound NOT metabolized | Compound NOT metabolized | Compound metabolized | Compound NOT metabolized | Compound NOT metabolized | Compound metabolized | Compound NOT metabolized
Br.CN(C)CCCC1(c2ccc(F)cc2)OCc2cc(C#N)ccc21 (stereo unspecified) [CITALOPRAM HYDROBROMIDE] | Compound metabolized | Compound metabolized | Compound NOT metabolized | Compound NOT metabolized | Compound metabolized | Compound metabolized | Compound NOT metabolized | Compound NOT metabolized | Compound NOT metabolized
CN(C)CCC=C1c2ccccc2C=Cc2ccccc21 [CYCLOBENZAPRINE] | Compound metabolized | Compound metabolized | Compound NOT metabolized | Compound NOT metabolized | Compound metabolized | Compound metabolized | Compound NOT metabolized | Compound metabolized | Compound metabolized
O=C(Nc1ccccc1)OCC(CN1CCCCC1)OC(=O)Nc1ccccc1 (stereo unspecified) [DIPERODON] | Compound metabolized | Compound metabolized | Compound NOT metabolized | Compound NOT metabolized | Compound metabolized | Compound NOT metabolized | Compound NOT metabolized | Compound metabolized | Compound NOT metabolized
CC(C)N(CCC(C(N)=O)(c1ccccc1)c1ccccn1)C(C)C.O=P(O)(O)O (stereo unspecified) [DISOPYRAMIDE PHOSPHATE] | Compound metabolized | Compound NOT metabolized | Compound NOT metabolized | Compound NOT metabolized | Compound metabolized | Compound NOT metabolized | Compound NOT metabolized | Compound NOT metabolized | Compound NOT metabolized
O=c1[nH]c2ccccc2n1CCCN1CCC(n2c(=O)[nH]c3cc(Cl)ccc32)CC1 [DOMPERIDONE] | Compound NOT metabolized | Compound NOT metabolized | Compound NOT metabolized | Compound NOT metabolized | Compound NOT metabolized | Compound NOT metabolized | Compound NOT metabolized | Compound NOT metabolized | Compound NOT metabolized
C[C@@H](CO)NC(=O)[C@@H]1C=C2c3cccc4[nH]cc(c34)C[C@H]2N(C)C1.O=C(O)/C=C\C(=O)O [ERGONOVINE MALEATE] | Compound metabolized | Compound NOT metabolized | Compound NOT metabolized | Compound NOT metabolized | Compound NOT metabolized | Compound NOT metabolized | Compound NOT metabolized | Compound metabolized | Compound NOT metabolized
CCN(CC)C(C)CN1c2ccccc2Sc2ccccc21 (stereo unspecified) [ETHOPROPAZINE] | Compound metabolized | Compound metabolized | Compound NOT metabolized | Compound metabolized | Compound metabolized | Compound metabolized | Compound NOT metabolized | Compound metabolized | Compound metabolized
Cc1nc(-c2ccc(OCC(C)C)c(C#N)c2)sc1C(=O)O [FEBUXOSTAT] | Compound metabolized | Compound metabolized | Compound NOT metabolized | Compound metabolized | Compound metabolized | Compound metabolized | Compound metabolized | Compound metabolized | Compound metabolized
CC(C)(C(=O)O)c1ccc(C(O)CCCN2CCC(C(O)(c3ccccc3)c3ccccc3)CC2)cc1 (stereo unspecified) [FEXOFENADINE] | Compound NOT metabolized | Compound NOT metabolized | Compound NOT metabolized | Compound NOT metabolized | Compound NOT metabolized | Compound metabolized | Compound NOT metabolized | Compound NOT metabolized | Compound NOT metabolized
COc1ccc2c3c1O[C@H]1C[C@@H](O)C=C[C@@]31CCN(C)C2 [GALANTAMINE] | Compound metabolized | Compound metabolized | Compound NOT metabolized | Compound NOT metabolized | Compound metabolized | Compound metabolized | Compound NOT metabolized | Compound NOT metabolized | Compound NOT metabolized
Cc1ccc(S(=O)(=O)NC(=O)NN2CC3CCCC3C2)cc1 (stereo unspecified) [GLICLAZIDE] | Compound metabolized | Compound metabolized | Compound NOT metabolized | Compound metabolized | Compound metabolized | Compound metabolized | Compound metabolized | Compound metabolized | Compound NOT metabolized
